Laboratory results from PMC9030254, “Target Hopping from Protein Kinases to PXR: Identification of Small-Molecule Protein Kinase Inhibitors as Selective Modulators of Pregnane X Receptor from TüKIC Library” (Cells, 2022).

Columns and labels:
Assay in all cases: Kinase profiling
Assay type in all cases: biochemical
MAPKAPK2 = target: T1, MAPKAPK2 (Homo sapiens, UniProt P49137)
T1 construct: purchased ProQinase (Freiburg, Germany)
Method: (§1) The analysis was performed by ProQinase (Freiburg, Germany).

PRK1 = target: T2, PRK1 (Homo sapiens, UniProt Q16512)
T2 construct: purchased ProQinase (Freiburg, Germany)
Method: as §1

CDK12/CycK = target: T3, CDK12/CycK (Homo sapiens, UniProt Q9NYV4)
T3 construct: purchased ProQinase (Freiburg, Germany)
Method: as §1

MARK4 = target: T4, MARK4 (Homo sapiens, UniProt Q96L34)
T4 construct: purchased ProQinase (Freiburg, Germany)
T4 sequence (Q96L34 1-752): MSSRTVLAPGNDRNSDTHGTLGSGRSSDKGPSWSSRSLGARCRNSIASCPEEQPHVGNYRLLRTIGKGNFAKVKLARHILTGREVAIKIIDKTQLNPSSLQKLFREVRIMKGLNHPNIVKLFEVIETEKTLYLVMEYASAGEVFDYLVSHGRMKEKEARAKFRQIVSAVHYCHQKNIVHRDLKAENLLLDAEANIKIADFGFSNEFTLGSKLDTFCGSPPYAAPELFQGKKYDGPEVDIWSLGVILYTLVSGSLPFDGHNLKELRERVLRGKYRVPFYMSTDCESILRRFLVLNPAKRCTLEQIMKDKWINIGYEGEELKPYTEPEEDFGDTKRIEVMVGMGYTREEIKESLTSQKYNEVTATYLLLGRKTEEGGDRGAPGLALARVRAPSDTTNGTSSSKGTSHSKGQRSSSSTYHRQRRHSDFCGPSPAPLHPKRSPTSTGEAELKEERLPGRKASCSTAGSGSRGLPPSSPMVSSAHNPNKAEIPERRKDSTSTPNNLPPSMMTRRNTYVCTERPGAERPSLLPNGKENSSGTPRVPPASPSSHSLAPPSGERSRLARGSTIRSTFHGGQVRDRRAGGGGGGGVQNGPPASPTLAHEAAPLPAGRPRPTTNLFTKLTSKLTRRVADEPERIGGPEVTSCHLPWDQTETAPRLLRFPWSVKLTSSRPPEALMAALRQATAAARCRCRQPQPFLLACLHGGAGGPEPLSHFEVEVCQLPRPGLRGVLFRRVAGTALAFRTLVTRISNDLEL
Method: as §1

SYK = target: T5, SYK (Homo sapiens, UniProt P43405)
T5 construct: purchased ProQinase (Freiburg, Germany)
Method: as §1

ACVR1 = target: T6, ACVR1 (Homo sapiens, UniProt Q04771)
T6 construct: purchased ProQinase (Freiburg, Germany)
T6 sequence (Q04771 21-509): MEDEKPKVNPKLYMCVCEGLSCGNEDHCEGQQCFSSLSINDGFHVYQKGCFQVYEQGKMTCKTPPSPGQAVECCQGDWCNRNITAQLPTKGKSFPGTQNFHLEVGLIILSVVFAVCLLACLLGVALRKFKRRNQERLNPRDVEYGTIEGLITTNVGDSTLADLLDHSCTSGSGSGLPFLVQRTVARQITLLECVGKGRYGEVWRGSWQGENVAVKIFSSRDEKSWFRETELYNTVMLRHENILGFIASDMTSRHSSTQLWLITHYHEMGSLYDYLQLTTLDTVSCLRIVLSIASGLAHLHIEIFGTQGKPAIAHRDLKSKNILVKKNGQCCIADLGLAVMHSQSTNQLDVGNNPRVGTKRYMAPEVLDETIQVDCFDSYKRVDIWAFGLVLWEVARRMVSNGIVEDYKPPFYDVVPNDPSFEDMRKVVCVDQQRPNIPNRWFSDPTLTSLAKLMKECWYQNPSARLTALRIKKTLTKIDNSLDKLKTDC
Method: as §1

HIPK4 = target: T7, HIPK4 (Homo sapiens, UniProt Q8NE63)
T7 construct: purchased ProQinase (Freiburg, Germany)
T7 sequence (Q8NE63 1-616): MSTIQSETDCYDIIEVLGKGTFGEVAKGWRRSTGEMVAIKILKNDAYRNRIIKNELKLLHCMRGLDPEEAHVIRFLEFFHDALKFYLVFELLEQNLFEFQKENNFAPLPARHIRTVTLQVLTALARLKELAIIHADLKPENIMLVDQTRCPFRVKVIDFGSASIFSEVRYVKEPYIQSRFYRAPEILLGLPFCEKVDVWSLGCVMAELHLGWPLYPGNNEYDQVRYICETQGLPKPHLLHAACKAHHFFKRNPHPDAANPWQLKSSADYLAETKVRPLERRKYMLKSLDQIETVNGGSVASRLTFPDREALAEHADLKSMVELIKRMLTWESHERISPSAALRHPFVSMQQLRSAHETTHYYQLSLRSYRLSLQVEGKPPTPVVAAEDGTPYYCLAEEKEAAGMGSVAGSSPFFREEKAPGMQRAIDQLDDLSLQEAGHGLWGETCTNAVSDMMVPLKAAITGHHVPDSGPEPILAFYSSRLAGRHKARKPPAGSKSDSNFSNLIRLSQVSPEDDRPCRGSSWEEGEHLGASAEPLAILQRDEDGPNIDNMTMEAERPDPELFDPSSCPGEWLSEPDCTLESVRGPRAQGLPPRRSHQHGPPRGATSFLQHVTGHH
Method: as §1

IGF1R = target: T8, IGF1R (Homo sapiens, UniProt P08069)
T8 construct: purchased ProQinase (Freiburg, Germany)
Method: as §1

ACVR1B = target: T9, ACVR1B (Homo sapiens, UniProt P36896)
T9 construct: purchased ProQinase (Freiburg, Germany)
T9 sequence (P36896 24-505): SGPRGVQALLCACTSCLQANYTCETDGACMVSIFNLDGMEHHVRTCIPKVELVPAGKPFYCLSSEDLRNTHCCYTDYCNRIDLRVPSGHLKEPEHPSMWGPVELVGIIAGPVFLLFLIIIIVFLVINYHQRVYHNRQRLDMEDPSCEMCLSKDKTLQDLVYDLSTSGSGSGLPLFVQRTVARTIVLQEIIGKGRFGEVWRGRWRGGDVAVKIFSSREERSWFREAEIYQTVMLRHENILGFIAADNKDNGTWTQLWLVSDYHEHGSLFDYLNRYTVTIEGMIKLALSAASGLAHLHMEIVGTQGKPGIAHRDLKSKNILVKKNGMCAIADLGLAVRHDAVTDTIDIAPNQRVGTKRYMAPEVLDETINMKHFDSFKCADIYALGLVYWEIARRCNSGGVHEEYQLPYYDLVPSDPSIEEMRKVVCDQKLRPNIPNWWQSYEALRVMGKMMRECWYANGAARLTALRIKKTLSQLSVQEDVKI
Method: as §1

PASK = target: T10, PASK (Homo sapiens, UniProt Q96RG2)
T10 construct: purchased ProQinase (Freiburg, Germany)
Method: as §1

T3 sequence (Q9NYV4 whole entry): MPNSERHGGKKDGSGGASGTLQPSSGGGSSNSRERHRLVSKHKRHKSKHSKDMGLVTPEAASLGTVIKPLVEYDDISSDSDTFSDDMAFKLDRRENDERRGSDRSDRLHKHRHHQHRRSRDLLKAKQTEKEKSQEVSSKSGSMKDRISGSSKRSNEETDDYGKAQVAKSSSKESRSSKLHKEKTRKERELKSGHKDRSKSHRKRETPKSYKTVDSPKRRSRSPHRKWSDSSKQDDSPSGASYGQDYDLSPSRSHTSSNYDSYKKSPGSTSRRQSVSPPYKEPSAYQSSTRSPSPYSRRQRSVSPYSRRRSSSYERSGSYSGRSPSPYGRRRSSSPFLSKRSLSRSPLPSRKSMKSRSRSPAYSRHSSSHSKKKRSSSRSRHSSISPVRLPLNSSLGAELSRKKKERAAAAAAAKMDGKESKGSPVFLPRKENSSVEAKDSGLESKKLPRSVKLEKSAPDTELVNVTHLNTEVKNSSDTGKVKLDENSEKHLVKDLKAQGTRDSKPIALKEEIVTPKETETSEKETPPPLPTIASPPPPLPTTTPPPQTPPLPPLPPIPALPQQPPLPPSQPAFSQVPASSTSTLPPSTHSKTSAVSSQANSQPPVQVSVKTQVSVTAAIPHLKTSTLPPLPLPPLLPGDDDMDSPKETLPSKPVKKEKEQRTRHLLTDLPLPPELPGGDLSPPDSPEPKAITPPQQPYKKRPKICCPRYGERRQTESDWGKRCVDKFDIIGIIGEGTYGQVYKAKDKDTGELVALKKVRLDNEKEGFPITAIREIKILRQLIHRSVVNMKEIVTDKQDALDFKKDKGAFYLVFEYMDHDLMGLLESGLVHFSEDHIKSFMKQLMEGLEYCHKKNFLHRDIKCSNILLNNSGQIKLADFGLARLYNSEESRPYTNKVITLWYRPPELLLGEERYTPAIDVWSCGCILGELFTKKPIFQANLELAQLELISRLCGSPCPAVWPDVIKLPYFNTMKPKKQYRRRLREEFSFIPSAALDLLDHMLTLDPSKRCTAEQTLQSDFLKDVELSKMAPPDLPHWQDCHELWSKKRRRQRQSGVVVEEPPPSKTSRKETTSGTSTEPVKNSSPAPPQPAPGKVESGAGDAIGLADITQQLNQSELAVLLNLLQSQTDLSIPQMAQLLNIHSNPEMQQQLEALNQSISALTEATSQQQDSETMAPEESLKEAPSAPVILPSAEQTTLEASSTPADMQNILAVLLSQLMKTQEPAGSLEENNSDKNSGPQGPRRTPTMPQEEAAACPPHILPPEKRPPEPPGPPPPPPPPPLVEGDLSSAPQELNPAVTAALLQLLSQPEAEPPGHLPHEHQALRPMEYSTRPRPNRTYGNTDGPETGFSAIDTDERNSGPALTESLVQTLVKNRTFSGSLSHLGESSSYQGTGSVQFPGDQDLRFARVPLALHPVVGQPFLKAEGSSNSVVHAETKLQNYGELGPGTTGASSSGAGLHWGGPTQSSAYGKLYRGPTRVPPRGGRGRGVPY
T3 sequence (O75909 whole entry partner): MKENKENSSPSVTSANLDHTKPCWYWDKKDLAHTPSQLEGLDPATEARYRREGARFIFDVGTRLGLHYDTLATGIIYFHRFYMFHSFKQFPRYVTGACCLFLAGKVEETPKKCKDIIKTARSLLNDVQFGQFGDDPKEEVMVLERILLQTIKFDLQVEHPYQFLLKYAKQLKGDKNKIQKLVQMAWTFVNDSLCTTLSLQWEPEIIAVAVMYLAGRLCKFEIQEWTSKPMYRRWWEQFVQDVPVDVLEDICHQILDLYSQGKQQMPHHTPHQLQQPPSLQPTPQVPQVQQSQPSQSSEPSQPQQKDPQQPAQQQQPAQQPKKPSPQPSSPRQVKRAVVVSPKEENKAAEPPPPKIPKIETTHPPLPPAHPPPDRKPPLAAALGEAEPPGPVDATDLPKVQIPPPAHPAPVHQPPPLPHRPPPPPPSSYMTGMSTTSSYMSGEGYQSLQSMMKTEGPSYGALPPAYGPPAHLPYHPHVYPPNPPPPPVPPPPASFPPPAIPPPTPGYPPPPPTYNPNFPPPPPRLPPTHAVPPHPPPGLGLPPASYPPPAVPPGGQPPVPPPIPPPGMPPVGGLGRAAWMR
T1 sequence (P49137 whole entry): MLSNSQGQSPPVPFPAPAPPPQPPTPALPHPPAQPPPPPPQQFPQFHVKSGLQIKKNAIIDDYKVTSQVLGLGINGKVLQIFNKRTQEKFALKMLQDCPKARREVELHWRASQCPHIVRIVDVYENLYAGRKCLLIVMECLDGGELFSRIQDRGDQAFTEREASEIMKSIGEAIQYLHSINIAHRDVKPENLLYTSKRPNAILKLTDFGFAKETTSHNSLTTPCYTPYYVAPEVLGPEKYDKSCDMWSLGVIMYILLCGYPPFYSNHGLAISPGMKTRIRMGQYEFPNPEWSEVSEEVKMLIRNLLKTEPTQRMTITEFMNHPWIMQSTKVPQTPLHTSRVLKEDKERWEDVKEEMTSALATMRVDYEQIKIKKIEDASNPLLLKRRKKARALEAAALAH
T2 sequence (Q16512 whole entry): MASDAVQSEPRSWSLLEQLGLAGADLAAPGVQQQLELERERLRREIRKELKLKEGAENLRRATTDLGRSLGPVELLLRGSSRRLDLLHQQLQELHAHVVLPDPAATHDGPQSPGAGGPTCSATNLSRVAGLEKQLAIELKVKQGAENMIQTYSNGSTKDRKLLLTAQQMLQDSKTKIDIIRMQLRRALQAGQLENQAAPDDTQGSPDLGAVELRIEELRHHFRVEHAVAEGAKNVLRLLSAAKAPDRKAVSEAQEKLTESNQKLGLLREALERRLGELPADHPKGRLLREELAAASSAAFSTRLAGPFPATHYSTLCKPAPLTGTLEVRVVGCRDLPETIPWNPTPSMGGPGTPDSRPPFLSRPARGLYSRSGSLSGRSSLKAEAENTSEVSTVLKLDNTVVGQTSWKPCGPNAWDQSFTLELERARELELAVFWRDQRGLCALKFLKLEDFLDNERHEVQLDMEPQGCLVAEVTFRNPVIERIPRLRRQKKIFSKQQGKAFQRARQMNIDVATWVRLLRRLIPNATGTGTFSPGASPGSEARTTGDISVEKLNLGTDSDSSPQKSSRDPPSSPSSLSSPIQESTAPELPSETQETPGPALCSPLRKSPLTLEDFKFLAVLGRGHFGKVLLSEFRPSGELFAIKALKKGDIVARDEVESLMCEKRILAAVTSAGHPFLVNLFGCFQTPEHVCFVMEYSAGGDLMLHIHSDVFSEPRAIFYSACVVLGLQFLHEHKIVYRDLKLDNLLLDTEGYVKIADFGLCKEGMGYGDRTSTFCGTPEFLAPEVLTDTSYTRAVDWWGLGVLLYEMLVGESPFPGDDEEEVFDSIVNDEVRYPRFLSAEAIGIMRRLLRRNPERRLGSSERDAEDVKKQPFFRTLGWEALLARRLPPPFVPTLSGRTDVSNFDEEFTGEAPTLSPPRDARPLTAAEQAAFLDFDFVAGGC
T8 sequence (P08069 31-1367): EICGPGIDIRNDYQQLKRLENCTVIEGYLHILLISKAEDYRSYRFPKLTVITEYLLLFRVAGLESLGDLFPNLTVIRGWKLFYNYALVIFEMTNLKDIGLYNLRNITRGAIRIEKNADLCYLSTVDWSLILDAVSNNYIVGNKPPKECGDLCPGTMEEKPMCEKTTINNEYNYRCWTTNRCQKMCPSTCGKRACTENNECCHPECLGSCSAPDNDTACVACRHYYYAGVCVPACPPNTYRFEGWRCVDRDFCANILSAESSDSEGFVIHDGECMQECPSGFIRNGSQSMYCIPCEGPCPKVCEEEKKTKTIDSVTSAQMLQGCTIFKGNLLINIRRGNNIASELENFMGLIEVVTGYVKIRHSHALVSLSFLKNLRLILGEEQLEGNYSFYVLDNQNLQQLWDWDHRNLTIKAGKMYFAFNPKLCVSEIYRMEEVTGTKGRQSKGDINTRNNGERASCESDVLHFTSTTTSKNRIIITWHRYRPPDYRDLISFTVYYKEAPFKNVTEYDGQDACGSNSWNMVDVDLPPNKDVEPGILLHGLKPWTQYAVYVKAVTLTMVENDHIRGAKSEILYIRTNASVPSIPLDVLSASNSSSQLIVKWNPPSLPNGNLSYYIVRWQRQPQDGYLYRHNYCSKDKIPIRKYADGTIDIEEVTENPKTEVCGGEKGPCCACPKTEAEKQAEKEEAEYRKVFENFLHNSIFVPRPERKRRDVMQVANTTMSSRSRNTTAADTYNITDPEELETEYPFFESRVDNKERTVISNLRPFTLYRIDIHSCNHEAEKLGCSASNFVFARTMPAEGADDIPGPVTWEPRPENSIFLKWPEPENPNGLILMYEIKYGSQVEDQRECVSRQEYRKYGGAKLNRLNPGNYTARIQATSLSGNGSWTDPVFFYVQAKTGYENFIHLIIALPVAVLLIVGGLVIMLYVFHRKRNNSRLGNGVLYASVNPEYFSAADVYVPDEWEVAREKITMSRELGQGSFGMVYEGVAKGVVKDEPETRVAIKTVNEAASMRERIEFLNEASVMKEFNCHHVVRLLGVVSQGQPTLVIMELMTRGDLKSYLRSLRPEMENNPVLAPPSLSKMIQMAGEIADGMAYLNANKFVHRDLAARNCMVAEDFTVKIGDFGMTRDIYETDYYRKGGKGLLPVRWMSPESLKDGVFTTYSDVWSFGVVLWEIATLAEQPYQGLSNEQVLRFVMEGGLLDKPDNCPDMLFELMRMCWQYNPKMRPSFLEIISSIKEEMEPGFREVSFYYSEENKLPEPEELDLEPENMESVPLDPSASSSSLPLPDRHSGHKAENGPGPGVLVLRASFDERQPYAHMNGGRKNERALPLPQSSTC

| SMILES | Residual activity (MAPKAPK2; 1.0E-05 M) | Residual activity (MAPKAPK2; 1.0E-06 M) | Residual activity (PRK1; 1.0E-05 M) | Residual activity (PRK1; 1.0E-06 M) | Residual activity (CDK12/CycK; 1.0E-05 M) | Residual activity (CDK12/CycK; 1.0E-06 M) | Residual activity (MARK4; 1.0E-05 M) | Residual activity (MARK4; 1.0E-06 M) | Residual activity (SYK; 1.0E-05 M) | Residual activity (SYK; 1.0E-06 M) | Residual activity (ACVR1; 1.0E-05 M) | Residual activity (ACVR1; 1.0E-06 M) | Residual activity (HIPK4; 1.0E-05 M) | Residual activity (HIPK4; 1.0E-06 M) | Residual activity (IGF1R; 1.0E-05 M) | Residual activity (IGF1R; 1.0E-06 M) | Residual activity (ACVR1B; 1.0E-05 M) | Residual activity (ACVR1B; 1.0E-06 M) | Residual activity (PASK; 1.0E-05 M) | Residual activity (PASK; 1.0E-06 M) |
| --- | --- | --- | --- | --- | --- | --- | --- | --- | --- | --- | --- | --- | --- | --- | --- | --- | --- | --- | --- | --- |
| O=C(Nc1ccc(F)c(Nc2ccc3c(c2)CCCCC3=O)c1)c1cccc(F)c1 [Compound 109] | 78 % of control | 101 % of control | 101 % of control | 94 % of control | 99 % of control | 105 % of control | 91 % of control | 102 % of control | 94 % of control | 95 % of control | 97 % of control | 88 % of control | 91 % of control | 95 % of control | 80 % of control | 104 % of control | 87 % of control | 98 % of control | 97 % of control | 95 % of control |
| O=C(Cc1ccccc1)Nc1ccc(F)c(Nc2ccc3c(c2)CCCCC3=O)c1 [Compound 100] | 77 % of control | 121 % of control | 101 % of control | 112 % of control | 100 % of control | 104 % of control | 94 % of control | 99 % of control | 89 % of control | 105 % of control | 93 % of control | 97 % of control | 84 % of control | 92 % of control | 101 % of control | 97 % of control | 90 % of control | 92 % of control | 97 % of control | 107 % of control |
